In US9416163B2, “Synthetic oligopeptides designed from mite cysteine proteases and methods for the production of polyclonal IgY antibodies for the detection of intradomiciliary mites” (priority 2009, dated 2016):

System: Hi Line Brown chickens
Assay: Immunogenicity of synthetic peptide in immunized chickens (IgY production)
Type: in vivo, chicken
Settings: chickens immunized intramuscularly with peptide in Freund's adjuvant; IgY from egg yolk
Text: An experimental avian model was used in the experiments, represented by Hi Line Brown chickens, immunized with peptide 2, using complete Freund's adjuvant during the first immunization and incomplete Freund's adjuvant for the three subsequent immunizations, as described in the immunization protocol used. As a positive control, chickens were immunized with BSA, and as a negative control they were not immunized. Antibodies were extracted from egg yolk using an organic solvent and purified by thiophilic chromatography. Indirect ELISA tests were developed to measure the antibody titer and its specificity was determined by indirect ELISA. (25-26)
Experiments used an avian experimental model, represented by Hi Line Brown chickens, immunized with peptide 2, using complete Freund's adjuvant for the first immunization and incomplete Freund's adjuvant for the three subsequent immunizations described in the immunization protocol used. As a positive control, chickens were immunized with BSA, and as a negative control they were not immunized. Antibodies were extracted from egg yolk using an organic solvent and purified by thiophilic chromatography. Indirect ELISA tests were developed to measure the antibody titer and its specificity was determined by indirect ELISA. (25-26)
(§1) Experiments used an avian experimental model, represented by Hi Line Brown chickens, immunized with peptide 4, using complete Freund's adjuvant for the first immunization and incomplete Freund's adjuvant for the three subsequent immunizations described in the immunization protocol used. […] Indirect ELISA tests were developed to measure the antibody titer and its specificity was determined by indirect ELISA. […]
as §1, with “5,” for “4,”, “ELISA (FIG. 14)” for “ELISA.”

IPANFDWRQKTHVNPIRNQG [Peptide P05]
Immunogenicity: induction of IgY antibodies recognizing native mite proteins: induces the production of IgY-anti P05 antibody that recognizes epitopes B and/or T in native proteins of intradomiciliary Dp and Bt mites

PIRMQGGCGSCWAFSGV [Peptide P02]
Immunogenicity: induction of IgY antibodies recognizing native mite proteins: induces the production of IgY anti P06 antibodies that recognize B and/or T epitopes in native proteins of intradomiciliary Df, Dp and Bt mite species

TNACSINGNAPAEIDLRQMR [Peptide P01]
Immunogenicity: induction of IgY antibodies recognizing native mite proteins: induces the production of IgY anti P04 antibodies that recognize B and/or T epitopes in native proteins of intradomiciliary Df and Bt mite species
